The text below walks through data of patent publication US12433875B2, “(R)-4-(1-(6-(4-(trifluoromethyl)benzyl)-6-azaspiro[2.5]octane-5-carboxamido)-cyclopropyl) benzoic acid or its salt also in polymorphic form a for use in the prevention of heterotopic ossification” (ROTTAPHARM BIOTECH S.R.L., priority 2019, dated 2025).

The test system of this assay is Male Lewis rats (CIA model, osteophyte formation). Briefly: CIA model in rats, micro-CT study of bone structure. The format is in vivo, rat. On the procedure:
Male Lewis rats were immunized and treated exactly as described in example 2.
Specifically, the animals were divided in four groups: controls, vehicle treated CIA rat, and two groups administered with a dose of 10 mg/kg and 30 mg/kg, respectively, of the compound of the invention.
After 14 days of treatment, bone samples corresponding to hind limbs (left and right) of arthritic rats or sham ones were sent for micro-CT analysis to Atlantic Bone Screen (ABS, 3 rue Aronnax, 44800 SAINT-HERBLAIN France). Bone samples were sent to ABS facilities after they have been removed from soft tissue and fixed in formalin solution within a maximum of 1 week.
40 samples were analyses blindly. Then, the unmask data were analyzed to compare the different groups:
Analyses of calcaneus and knee density and microarchitectural characteristics were performed using the high-resolution X-ray micro-CT. […] To quantitatively compare the four groups, the hind paw calcaneus, knee (proximal tibial and distal femoral epiphysis) and proximal tibial metaphysis were identified as the anatomical sites for micro-CT analysis. The bone mineral density (BMD), bone volume ratio (BV/TV), bone surface (BS) and bone surface-volume ratio (BS/BV) was calculated while including calcaneus, proximal tibial and distal femoral epiphysis (cortical bone, cancellous bone and potential osteophytes).

On to `O=C([O-])c1ccc(C2(NC(=O)[C@H]3CC4(CCN3Cc3ccc(C(F)(F)F)cc3)CC4)CC2)cc1.[Na+]` [Form A, sodium (R)-4-(1-(6-(4-(trifluoromethyl)benzyl)-6-azaspiro[2.5]octane-5-carboxamido)cyclopropyl)benzoate], for which, under “10 and 30 mg/kg, 14 days of treatment, FIG. 8”, the “osteophytes at calcaneus and knee (micro-CT)” value is recorded as “the osteophytes disappeared at both site”. The “optimal dose (maximal activity) against osteophyte formation” value (micro-CT, maintained at 30 mg/kg) stood at 10 mg/kg.
